Reference: US11406633B2, “Dosing schedule of a Wnt inhibitor and an anti-PD-1 antibody molecule in combination” (Novartis AG, priority 2017, dated 2022)
Like-named read-outs stand apart in the source and are kept apart here.

Experiments:
Wnt pathway = assay: pLRP6 and AXIN2 qPCR levels in biopsies of skin and tumors after treatment; assay type: in vivo, human; settings: post-treatment skin sample biopsies
Excerpt: (§1) Recently, the secreted glycoproteins R-spondins 1-4 (RSPO1-4) have emerged as important activators of canonical Wnt signaling. RSPOs bind to leucine-rich repeat-containing G-protein-coupled receptors (LGR4-6) and the transmembrane E3 ubiquitin ligases RING finger 43/zinc and RING finger 3 (RNF43/ZNRF3), forming a ternary complex (Chen et al. Genes Dev; 2013, 27, 1345). RNF43/ZNRF3 antagonize Wnt signaling by promoting the turnover of Fz and LRP6 (Hao et al. Nature 2012, 485 (7397), 195-200; Koo et al. Nature, 2012, 488 (7413), 665). Binding of RSPO induces the endocytosis of RNF43/ZNRF3, thereby increasing levels of membrane-bound Fz and LRP6 and enhancing Wnt ligand-mediated signaling. In order to activate signaling within target cells, Wnt proteins must be properly secreted and transported across the extracellular space. Porcupine is a membrane-bound-O-acyltransferase (MBOAT) that adds palmitoyl groups to Wnt proteins (Takada et al. Dev. Cell 2006, 11, 791). […] For example, the Wnt inhibitor of the present disclosure, namely 2-(2′,3-dimethyl-[2,4′-bipyridin]-5-yl)-N-(5-(pyrazin-2-yl)pyridin-2-yl)acetamide was tested and the levels of pLRP6 and AXIN2qPCR were analyzed in biopsies of skin and tumors.

tumor = assay: other single-agent studies: cytotoxic gene signature and tumor efficacy; assay type: in vivo; settings: alone as a single agent
Excerpt: as §1

[1] = animal toxicity studies in rat
Excerpt: Recently, the secreted glycoproteins R-spondins 1-4 (RSPO1-4) have emerged as important activators of canonical Wnt signaling. RSPOs bind to leucine-rich repeat-containing G-protein-coupled receptors (LGR4-6) and the transmembrane E3 ubiquitin ligases RING finger 43/zinc and RING finger 3 (RNF43/ZNRF3), forming a ternary complex (Chen et al. Genes Dev; 2013, 27, 1345). RNF43/ZNRF3 antagonize Wnt signaling by promoting the turnover of Fz and LRP6 (Hao et al. Nature 2012, 485 (7397), 195-200; Koo et al. Nature, 2012, 488 (7413), 665). Binding of RSPO induces the endocytosis of RNF43/ZNRF3, thereby increasing levels of membrane-bound Fz and LRP6 and enhancing Wnt ligand-mediated signaling. In order to activate signaling within target cells, Wnt proteins must be properly secreted and transported across the extracellular space. Porcupine is a membrane-bound-O-acyltransferase (MBOAT) that adds palmitoyl groups to Wnt proteins (Takada et al. Dev. Cell 2006, 11, 791). Mutations in components of the canonical Wnt pathway such as APC and β-catenin play important roles in the pathogenesis of some malignancies and those genetic lesions affect upstream Wnt pathway regulation. The inhibition of the Wnt pathway signaling was recently associated with several drawbacks such as side effects and dose limiting toxicities. Such drawbacks were limiting the anti-tumor efficacy of Wnt inhibitors. Separately, activation of the Wnt pathway was linked to resistance to immunotherapy and offers a mechanism by which tumors can evade immune detection and decrease clinical benefit to check-point inhibitors (Spranger et al. Nature 2015, 523, 231). For example, the Wnt inhibitor of the present disclosure, namely 2-(2′,3-dimethyl-[2,4′-bipyridin]-5-yl)-N-(5-(pyrazin-2-yl)pyridin-2-yl)acetamide was tested and the levels of pLRP6 and AXIN2qPCR were analyzed in biopsies of skin and tumors.

[2] = system: tumor-immune microenvironment / WNT pathway (AXIN2); assay: NanoString gene expression of paired tumor biopsies (screening vs on treatment), immune gene signatures fitted against AXIN2 change; assay type: in vivo, human; settings: for relationship between AXIN2 inhibition and increased expression of the dendritic cell signature (CD103+) / relationship between AXIN2 inhibition and increased expression of the chemokine signature (CD8+ T-cell recruitment): log 2 fold-change screening to on-treatment, 9 paired samples; for relationship between AXIN2 inhibition and increased expression of the dendritic cell signature (CD103+): 15 days of exposure; for relationship between AXIN2 inhibition and increased expression of the chemokine signature (CD8+ T-cell recruitment): about 15 days of exposure
Excerpt: NanoString measures gene expression for a selected panel of up to about 1000 genes. This is executed using uniquely barcoded probes that hybridize directly to target RNAs (ribonucleic acids). The RNA-probe hybrids are then run out on a gel to linearize the barcodes. These barcodes are then counted and then normalized using an internally developed pipeline. […] Tumors were fixed in formalin and embedded in paraffin (FFPE) or directly placed in RNA Later. These samples were transferred to Genoptix where RNA was isolated for real time qPCR analyses of the pharmacodynamics (PD) marker AXIN2. Remnant RNA was transferred to the assay research laboratory (ARL) where gene expression was profiled using (2016) NanoString pan-cancer immune profiling panel as well as a custom design panel of immune-related genes. Gene expression was normalized using methods recommended by NanoString, with the exception that samples were normalized within specific indications (e.g. melanoma or pancreatic cancer samples were normalized separately) and housekeeping genes were selected using the geNorm stability metric [PMID: 12184808]. Certain genes overlapped between both panels, which we used to assess variability and other quality control parameters. […] The count data described herein was normalized according to the methods recommended by NanoString with one exception, namely that the samples were normalized within the specific indications as described herein and approximately 40 housekeeping genes (defined on the NanoString website for their commercially available cancer immune panel, 2016) were used for biological normalization across samples. Gene signatures were used before to probe the data for phenotypic changes in the tumor-immune microenvironment. It has been previously shown that in genetically engineered mice with activated WNT signaling the dendritic cells and T-cells in the tumor microenvironment are inhibited; however, it has not been shown that this effect is reversible. Therefore, our objective was to use gene expression analyses in samples from the patients treated with the Wnt inhibitor to determine the extent to which the inhibitory effects of WNT signaling in the tumor on the proximal immune cells can be reversed by pharmacological inhibition of the WNT pathway. To understand whether the Compound of Formula (I) has effects on the tumor immune microenvironment, we looked at the relationships between immune gene expression and the PD marker AXIN2. By using this marker, we can understand the extent to which the WNT pathway has been inhibited in a given tumor. Instead of focusing on individual genes, we used the geometric average expression of sets of genes (gene signatures) that describe a particular pathway or cellular function. One gene signature is a chemokine signature that is associated with recruitment of CD8+ T-cells [PMID: 19293190] and other signature is associated with activated CD103+ dendritic cells [PMID: 25970248]. Not every subject presented with a strong inhibition of the WNT pathway as evidenced by the fold-changes observed in AXIN2 expression. […] These dendritic cells, when stimulated, function to recruit T-cells to the tumor. Importantly, this observation was made after 15 days of exposure to the Wnt inhibitor, which supported that intermittent dosing of the Compound of Formula (I) could be combined with a checkpoint inhibitor to stimulate an anti-tumor immune response in the context of tumors that previously had lacked immune infiltrate. […] The changes in AXIN2 expression were fitted by linear model to immune signature changes. […] Both are in log 2 scale. A positive value indicates an increase in the average expression of the genes in a given signature or in AXIN2. […] Second, a relationship between interferon gamma (or type II interferon) and AXIN2 inhibition was observed. Interferon gamma is typically expressed by CD8+ T-cells. […]

[3] = clinical study of the Wnt inhibitor: bone events; assay type: in vivo, human; settings: patients
Excerpt: The Wnt signaling pathway is required for development and survival of osteoblasts (involved in bone formation) and negatively regulates osteoclasts (involved in bone resorption). […] In addition, the short intermittent dosing of Wnt inhibitor was sufficient to result in upregulation of the activated dendritic cells signature. This is relevant because this subtype of dendritic cell is important for recruiting and activating T cells for an anti-tumoral response. Inhibition of the Wnt signaling in cancer treatment improves the response rate to PD-1 inhibition through release of inhibition of dendritic cells and T-cell activation. Overall, the combination of the Wnt inhibitor (i) and an anti-PD-1 antibody molecule, wherein Wnt inhibitor is administered only at the beginning of the treatment cycle for, e.g. 8 or 15 days, can show mutually coordinated effect of both compounds and offer better efficacy and […] safety profile compared to, for example, use of the Wnt inhibitor (i) alone.

[4] = dog, in vivo
[5] = animal toxicity studies in dog; settings: dogs
[6] = determined within the CPDR001X2101 clinical study; cited from earlier work

Cc1cc(-c2ncc(CC(=O)Nc3ccc(-c4cnccn4)cn3)cc2C)ccn1 [Compound of Formula (I), 2-(2′,3-dimethyl-[2,4′-bipyridin]-5-yl)-N-(5-(pyrazin-2-yl)pyridin-2-yl)acetamide]
level of AXIN2 (qPCR) (Wnt pathway): inhibited
level of pLRP6 (Wnt pathway): inhibited
cytotoxic gene signature (tumor): increased
tumor efficacy (tumor): lack of tumor efficacy
trabeculae ([1]; rat studies): decrease in trabeculae
toxicities (organs affected) ([1]; rat, in vivo): toxicities in gastrointestinal (GI) tract, bones and teeth
effects on bone marrow ([1]; rats): secondary effects
surrounding dendritic cell population on pharmacological inhibition of the WNT pathway ([2]; after 15 days of exposure): concomitant stimulation
relationship between AXIN2 inhibition and increased expression of the dendritic cell signature (CD103+) [2]: fairly linear relationship
relationship between AXIN2 inhibition and increased expression of the dendritic cell signature (CD103+) ([2]; listed as Wnt inhibitor (i)): fairly linear relationships
relationship between AXIN2 inhibition and increased expression of the chemokine signature (CD8+ T-cell recruitment) [2]: fairly linear relationship
relationship between AXIN2 inhibition and increased expression of the chemokine signature (CD8+ T-cell recruitment) ([2]; listed as WNT inhibitor (i)): linear relationship
relationship between AXIN2 inhibition and increased expression of the chemokine signature (CD8+ T-cell recruitment) ([2]; listed as Wnt inhibitor (i)): fairly linear relationships
relationship between AXIN2 inhibition and T-regulation (T-reg) signature ([2]; log 2 scale, FIG. 4): modest inverse relationship
relationship between AXIN2 inhibition and mast cell signature ([2]; log 2 scale, FIG. 4): modest inverse relationship
relationship between type I interferon signature and AXIN2 inhibition ([2]; log 2 scale, FIG. 4): weak relationship
immune cell infiltrates in the tumor-immune microenvironment ([2]; patient tumor biopsies): increasing immune cell infiltrates
inhibition of CD103+ dendritic cells ([2]; patient tumor biopsies): alleviating the inhibition of CD103+ dendritic cells
immune signatures in tumors ([2]; patients, Wnt inhibitor alone): changes in immune signatures in tumors
activated dendritic cells signature ([2]; short intermittent dosing): upregulation
bone fractures [3]: some patients experienced bone fractures
toxicities (organs affected) [4]: toxicities in gastrointestinal (GI) tract, bones and teeth
effects on kidneys [5]: secondary effects

PDR001: anti-PD-1 antibody molecule with VH and VL CDR sequences of BAP049-Clone-E, described in PCT/CN2016/099494
RP2D [6]: dose of 400 mg Q4W is the RP2D determined within the CPDR001X2101
